Tests used:
Experiment in all cases: isothermal titration calorimetry
[1] = test system: TelQ (DNA, G4) TTAGGGTTAGGGTTAGGGTTAGGG; settings: 10 mM Na phosphate, pH 6.5, 25°C
[2] = test system: TelM (DNA, single strand) TTAGGGTTAGAGTTAGGGTTAGGG; settings: 100 mM NaCl; 10 mM Na phosphate, pH 6.5, 25°C; site 1 of 2
[3] = test system: dsDNA (DNA, duplex) TTAGGGTTAGGGTTAGGGTTAGGG/CCCTAACCCTAACCCTAACCCTAA; settings: 100 mM NaCl or 100 mM KCl (not specified), Na+ 10 mM (Na phosphate), pH 6.5, 25°C

K ass ([1]; 100 mM KCl, text prints 1.0±0.15 × 10^7): 10.6±1.7 × 10^6 M^-1
K ass ([1]; 100 mM NaCl): 0.9±0.1 × 10^6 M^-1
K ass [2]: 200±70 × 10^6 M^-1
K ass [3]: 2.2±0.1 × 10^6 M^-1
SMILES: CC(=N)NCCNc1c2c(c(NCCNC(C)=N)c3sccc13)C(=O)c1ccccc1C2=O
